Series [1] addresses T1, PPARδ-RXRα heterodimer (Homo sapiens, UniProt Q03181).
T1 sequence (Q03181 1-441): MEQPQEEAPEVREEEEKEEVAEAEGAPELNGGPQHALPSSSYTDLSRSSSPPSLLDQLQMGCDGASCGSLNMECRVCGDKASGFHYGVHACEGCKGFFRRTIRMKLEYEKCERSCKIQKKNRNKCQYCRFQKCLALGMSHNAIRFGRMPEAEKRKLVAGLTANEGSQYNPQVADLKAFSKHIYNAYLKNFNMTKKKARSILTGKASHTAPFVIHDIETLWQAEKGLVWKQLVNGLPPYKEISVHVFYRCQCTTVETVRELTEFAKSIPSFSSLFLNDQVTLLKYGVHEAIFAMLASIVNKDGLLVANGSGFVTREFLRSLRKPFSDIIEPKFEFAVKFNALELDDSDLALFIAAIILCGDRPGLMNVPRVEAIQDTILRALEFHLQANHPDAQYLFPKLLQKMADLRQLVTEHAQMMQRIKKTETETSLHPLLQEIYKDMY
T1 sequence (P19793 1-462 partner): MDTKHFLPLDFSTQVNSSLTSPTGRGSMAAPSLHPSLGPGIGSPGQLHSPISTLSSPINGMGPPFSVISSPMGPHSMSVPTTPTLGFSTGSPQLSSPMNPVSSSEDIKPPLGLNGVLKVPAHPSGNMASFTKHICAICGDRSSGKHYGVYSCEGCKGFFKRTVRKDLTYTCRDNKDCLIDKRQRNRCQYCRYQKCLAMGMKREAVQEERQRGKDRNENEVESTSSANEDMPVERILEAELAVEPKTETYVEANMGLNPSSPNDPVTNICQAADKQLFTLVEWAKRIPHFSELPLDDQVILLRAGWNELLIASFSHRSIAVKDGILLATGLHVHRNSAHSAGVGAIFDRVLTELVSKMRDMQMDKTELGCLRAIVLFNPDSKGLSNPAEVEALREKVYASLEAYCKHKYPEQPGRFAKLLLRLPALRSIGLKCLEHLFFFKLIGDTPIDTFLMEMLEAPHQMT
Kind of series: PPARδ-RXRα heterodimer ligand activity (luciferase reporter, PPARδ:RXRα:4ERPP/CHO-K1 cells). In kind it is cell-based. More on the design: expressed in transfected cells. The note with it: concentration for 50% of maximum fold induction of luciferase, 48 hrs. Here is the method:
(§1) PPARδ-RXRα Heterodimer Ligand Activity
PPARδ:RXRα:4ERPP/CHO-K1 cells obtained in Reference Example 5a were cultured in HAM F12 medium (produced by NISSUI SEIYAKU) containing 10% fetal bovine serum (produced by Life Technologies, Inc., USA) and then seeded in a 96-well white plate (produced by Corning Costar Corporation, USA) at the density of 2×10^4 cells/well, and cultured in a CO2 gas incubator at 37° C. overnight.
After washing the 96 well white plate with PBS (Phosphate-buffered saline), 90 μl of HAM F12 medium containing 0.1% fatty acid-free bovine serum albumin (BSA) and 10 μl of test compound were added, and the cells were cultured in a CO2 gas incubator at 37° C. for 48 hrs. After removing the medium, 40 μl of PicaGene 7.5 (produced by Wako Pure Chemical Industries, Ltd.) was added. After stirring, the luciferase activity was determined using Lumistar (produced by BMG Labtechnologies GmbH, Germany).
The fold induction was calculated from the luciferase activity of each test compound when the luciferase activity in the non-treatment group is taken as 1. The values of the test compound concentration and the fold induction were analyzed using PRISM 2.01 (produced by GraphPad Software Inc. USA) to calculate the EC50 values, the effective concentration of a test compound for 50% of the maximum fold induction. […]
A general note: In a reporter assay the amount or activity of a reporter protein is the signal.

The subject of series [2] is KKA^y mice. Kind of series: Total cholesterol lowering action and plasma anti-arteriosclerosis index-enhancing action in mice. Format: in vivo. As to conditions: Mus musculus, po, 96 h, 0.01% in powdery diet, four days. Here is the method: Total Cholesterol Lowering Action and Plasma Anti-Arteriosclerosis Index-Enhancing Action in Mice
Test compounds were mixed in a powdery diet (CE-2, Japan Clea concentration of 0.01%, and freely given to KKA^y mice (11 to 12 weeks old, 5 mice per group), a model of type 2 diabetes mellitus, for four days. During this period, water was given freely. Blood was sampled from orbital venous plexus, and components in plasma separated from the blood were determined. Total cholesterol levels were determined using L type Wako Cholesterol (Wako Pure Chemical Industries, Ltd.). Precipitation reagent for HDL cholesterol was added to a part of the plasma to precipitate non-HDL lipoprotein, and cholesterol (HDL cholesterol) in the resulting supernatant was determined. The plasma anti-arteriosclerosis index [(HDL cholesterol/total cholesterol)×100] was calculated using these cholesterol levels.
In the Table, “total cholesterol lowering action (%)” represents a percent reduction (%) of the total cholesterol level in the treatment group when the total cholesterol level in the non-treatment group is taken as 100%. In addition, “plasma anti-arteriosclerosis index-enhancing action (%)” represents a percent increase (%) of the plasma anti-arteriosclerosis index in the treatment group when the plasma anti-arteriosclerosis index in the non-treatment group is taken as 100%.

In series [3] the test system is KKA^y mice. Kind of series: Hypoglycemic and hypolipidemic (hypotriglyceridemic) actions in mice. Format: in vivo. The note with it: Mus musculus, po, 96 h, 0.01% in powdery diet, four days. Here is the method:
Hypoglycemic and Hypolipidemic (Hypotriglyceridemic) Actions in Mice
Test compounds were mixed in a powdery diet (CE-2, Japan Clea) at the concentration of 0.01%, and freely given to KKA^y mice (11 to 12 weeks old, 5 mice per group), a model of type 2 diabetes mellitus, for four days. During this period, water was given freely. Blood was sampled from orbital venous plexus, and glucose and triglyceride levels in plasma separated from the blood were determined enzymatically using L type Wako Glu2 (Wako Pure Chemical Industries, Ltd.) or L type Wako TG.H (Wako Pure Chemical Industries, Ltd.), respectively.
In the Table, “hypoglycemic action (%)” represents a percent reduction (%) of the blood glucose level in the treatment group when the blood glucose level in the non-treatment group is taken as 100%. In addition, “hypolipidemic action (%)” represents a percent reduction (%) of the blood triglyceride level in the treatment group when the blood triglyceride level in the non-treatment group is taken as 100%.

For series [4], the target named is T1, PPARδ-RXRα heterodimer. Kind of series: PPARδ-RXRα heterodimer ligand activity (luciferase reporter, transfected COS-1 cells). Also noted: expressed in transfected cells; host or cells: COS-1 (transient, lipofectamine). The note with it: concentration for 50% of maximum fold induction of luciferase, 48 hrs. In kind it is cell-based. How it is done: as §1
The COS-1 cells obtained in Reference Example 9a were recovered, suspended in DMEM medium containing 0.1% fatty acid-free bovine serum albumin (BSA)(manufactured by Wako Pure Chemical Industries, Ltd.) (Nikken Biomedical Laboratory) and seeded in each well of a 96-well white plate (manufactured by Corning Costar Corporation, USA) at the density of 2×10^4 cells/well ([…]). Then, the test Compound ([…]) was added and the cells were cultured at 37° C., 5% CO2 for 48 hrs. The medium was removed from the 96-well white plate and PicaGine LT7.5 ([…], Wako Pure Chemical Industries) was added. After stirring, luciferase activity was measured using 1420 ARVO Multilabel Counter (Wallac)).
The fold induction was calculated from the luciferase activity of the test compound when the luciferase activity of the non-treatment group is taken as 1. The values of the test compound concentration and the fold induction were analyzed using PRISM 2.01 (produced by GraphPad Software Inc. USA) to calculate the EC50 values, the effective concentration of a test compound for 50% of the maximum fold induction.
Introduction of Plasmid and Reporter Plasmid for Expression of Human PPARδ, RXRα into COS-1 Cell […]

pEC50: −log10 of the molar value.

As to `Cc1oc(-c2ccccc2)nc1COc1ccc(Sc2nc(-c3ccccc3)c(CCC(=O)O)s2)cc1` [Example 12, 3-[2-[4-(5-methyl-2-phenyl-4-oxazolylmethoxy)phenylthio]-4-phenyl-5-thiazolyl]propionic acid], the melting point (in general, the temperature, or range, at which the solid turns liquid) was in the range of 121 to 122 °C. In addition, in series [1], the pEC50 (commonly the EC50 on a negative log10 scale, so that one unit is a factor of ten) was 6.17. The change in vivo at 0.01 % in diet in series [2] (percent increase of index [(HDL cholesterol/total cholesterol)×100] vs non-treatment group (100%)) worked out at 15%. Further, the inhibition in vivo at 0.01 % in diet in series [2] (percent reduction of total cholesterol level vs non-treatment group (100%)) is 22%. Also, the inhibition in vivo at 0.01 % in diet in series [3] (percent reduction of blood glucose level vs non-treatment group (100%), read-out: Hypoglycemic action (%)) amounted to 52%. Moreover, the inhibition in vivo at 0.01 % in diet in series [3] (percent reduction of blood triglyceride level vs non-treatment group (100%), read-out: Hypolipidemic action (%)) amounted to 56%.
For the compound `Cc1nc(SCc2ccc(OCc3nc(-c4ccccc4)oc3C)cc2)sc1CC(=O)O` [Example 58, [4-methyl-2-[4-(5-methyl-2-phenyl-4-oxazolylmethoxy)benzylthio]thiazol-5-yl]acetic acid], the pEC50 in series [4] was 6.17.
`Cc1nc(SCc2cccc(OCc3nc(-c4ccccc4)oc3C)c2)sc1CC(=O)O` [Example 60, [4-methyl-2-[3-(5-methyl-2-phenyl-4-oxazolylmethoxy)benzylthio]thiazol-5-yl]acetic acid] gave a pEC50 in series [4] of 6.59.
